Bounds are passed on as bounds.

The target of the assay is T1, hMC2 receptor (crude hMC2R membranes from CRE-bla-CHO-K1 cells stably expressing hMC2 receptor and hMRAP accessory protein) (Homo sapiens, UniProt Q01718).
T1 construct: crude membrane fractions
T1 sequence (Q01718 whole entry): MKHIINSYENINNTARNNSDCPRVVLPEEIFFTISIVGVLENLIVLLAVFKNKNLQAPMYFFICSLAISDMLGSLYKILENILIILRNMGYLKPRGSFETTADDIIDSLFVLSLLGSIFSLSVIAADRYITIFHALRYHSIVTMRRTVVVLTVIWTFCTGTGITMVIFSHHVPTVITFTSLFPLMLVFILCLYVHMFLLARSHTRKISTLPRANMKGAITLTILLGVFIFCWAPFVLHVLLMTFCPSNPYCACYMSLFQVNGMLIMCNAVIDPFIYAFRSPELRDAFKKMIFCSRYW
T1 sequence (Q8TCY5 whole entry partner): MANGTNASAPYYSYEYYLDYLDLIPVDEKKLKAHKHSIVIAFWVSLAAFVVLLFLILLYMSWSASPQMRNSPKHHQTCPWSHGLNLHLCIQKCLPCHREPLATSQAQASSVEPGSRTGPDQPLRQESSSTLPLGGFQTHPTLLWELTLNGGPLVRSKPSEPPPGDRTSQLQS
Put plainly: hMC2 membrane binding assay ([125I]ACTH (1-39) Tyr23, SPA). To be noted: displacement of 0.2 nM [125I]ACTH (1-39) Tyr23 from hMC2R membranes, 1.5 hours at room temperature; read-out: MC2R binding potency. The method in brief:
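Ki values come from non-linear regression of SPA scintillation counts, with compounds displacing [125I]ACTH(1-39) Tyr23. Membranes come from CRE-bla-CHO-K1 cells stably expressing hMC2 receptor together with hMRAP. They are preincubated with WGA-coated PVT SPA beads in 50 mM HEPES pH 7.4 with 0.20% BSA, Mg2+, Ca2+ and protease inhibitors.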
With `CN1CC[C@@H](NC(=O)C2(c3ccc(-c4cc(F)ccc4F)nc3)CCN(c3ccc(C(F)(F)F)cc3C#N)CC2)C1` [Compound 1-68, 1-[2-cyano-4-(trifluoromethyl)phenyl]-4-[6-(2,5-difluorophenyl)pyridin-3-yl]-N-[(3R)-1-methylpyrrolidin-3-yl]piperidine-4-carboxamide], the Ki was under 10 nM.

Turning to `CCOc1ncccc1-c1ccc(C2(NC(=O)N[C@@H]3CCN(C)C3)CCN(c3ccc(C(F)(F)F)cc3C#N)CC2)cn1` [Compound 2-19, 1-{1-[2-cyano-4-(trifluoromethyl)phenyl]-4-{2′-ethoxy-[2,3′-bipyridin]-5-yl}piperidin-4-yl}-3-[(3R)-1-methylpyrrolidin-3-yl]urea], the Ki is under 10 nM.

On to `CCOc1ncccc1-c1ccc(C2(C(=O)N[C@@H](C)CN(C)C)CCN(c3ccc(C(F)(F)F)cc3F)CC2)cn1` [Compound 1-317, N-[(2S)-1-(dimethylamino)propan-2-yl]-4-{2′-ethoxy-[2,3′-bipyridin]-5-yl}-1-[2-fluoro-4-(trifluoromethyl)phenyl]piperidine-4-carboxamide], for which the Ki is under 10 nM.

Regarding `CN1CCC[C@@H]1CNC(=O)C1(c2ccc(-c3cccn3C)nc2)CCN(c2ccc(C(F)(F)F)cc2C#N)CC1` [Compound 1-232, 1-[2-cyano-4-(trifluoromethyl)phenyl]-4-[6-(1-methyl-1H-pyrrol-2-yl)pyridin-3-yl]-N-{[(2R)-1-methylpyrrolidin-2-yl]methyl}piperidine-4-carboxamide], the Ki is under 10 nM.

Consider `CCOc1ncccc1-c1ccc(C2(C(=O)NC[C@@H](C)N)CCN(c3ccc(C(F)(F)F)cc3C#N)CC2)cc1` [Compound 1-4, N-[(2R)-2-aminopropyl]-1-[2-cyano-4-(trifluoromethyl)phenyl]-4-[4-(2-ethoxypyridin-3-yl)phenyl]piperidine-4-carboxamide], for which the Ki was 10 to 100 nM.

Consider `CCOc1ccccc1-c1ccc(C2(C(=O)NC3CN(C)C3)CCN(c3ccc(C(F)(F)F)cc3C#N)CC2)nn1` [Compound 1-136, 1-[2-cyano-4-(trifluoromethyl)phenyl]-4-[6-(2-ethoxyphenyl)pyridazin-3-yl]-N-(1-methylazetidin-3-yl)piperidine-4-carboxamide], for which the Ki is under 10 nM.

Regarding `CCOc1ncccc1-c1ccc(C2(NC(=O)[C@@H]3CCCN3C)CCN(c3ccc(C(F)(F)F)cc3C#N)CC2)cc1` [Compound 2-11, (2S)—N-{1-[2-cyano-4-(trifluoromethyl)phenyl]-4-[4-(2-ethoxypyridin-3-yl)phenyl]piperidin-4-yl}-1-methylpyrrolidine-2-carboxamide], the Ki is 10 to 100 nM.

Turning to `COc1ncccc1-c1ncc(C2(C(=O)NCCN(C)C)CCN(c3ccc(C(F)(F)F)cc3F)CC2)cc1F` [Compound 1-300, N-[2-(dimethylamino)ethyl]-4-{3-fluoro-2′-methoxy-[2,3′-bipyridin]-5-yl}-1-[2-fluoro-4-(trifluoromethyl)phenyl]piperidine-4-carboxamide], the Ki is under 10 nM.

Consider `CCOc1ncccc1-c1ccc(C2(C(=O)NCCN)CCN(c3ccc(C(F)(F)F)cc3C#N)CC2)cc1` [Compound 1-3, N-(2-aminoethyl)-1-[2-cyano-4-(trifluoromethyl)phenyl]-4-[4-(2-ethoxypyridin-3-yl)phenyl]piperidine-4-carboxamide], for which the Ki lay in the range of 10 to 100 nM.

Consider `CCOc1ncccc1-c1ccc(C2(C(=O)NC3CN(C)CC3O)CCN(c3ccc(C(F)(F)F)cc3C#N)CC2)cn1` (single isomer, unassigned) [Compound 1-41, 1-[2-cyano-4-(trifluoromethyl)phenyl]-4-{2′-ethoxy-[2,3′-bipyridin]-5-yl}-N-[(3S,4S)*-4-hydroxy-1-methylpyrrolidin-3-yl]piperidine-4-carboxamide], for which the Ki is under 10 nM.

With `CCOc1ccccc1-c1ccc(C2(C(=O)N[C@H]3CCN(C)C3)CCN(c3ccc(Cl)cc3C#N)CC2)nn1` [Compound 1-134, 1-(4-chloro-2-cyanophenyl)-4-[6-(2-ethoxyphenyl)pyridazin-3-yl]-N-[(3S)-1-methylpyrrolidin-3-yl]piperidine-4-carboxamide], the Ki is under 10 nM.

Regarding `CCOc1ncccc1-c1ccc(C2(C(=O)N[C@@H](C)CN(C)C)CCN(c3ccc(Cl)cc3Cl)CC2)cn1` [Compound 1-318, 1-(2,4-dichlorophenyl)-N-[(2S)-1-(dimethylamino)propan-2-yl]-4-{2′-ethoxy-[2,3′-bipyridin]-5-yl}piperidine-4-carboxamide], the Ki was under 10 nM.

In the case of `CN1C[C@H](F)C[C@H]1CNC(=O)C1(c2ccc(-c3cccn3C)nc2)CCN(c2ccc(C(F)(F)F)cc2C#N)CC1` [Compound 1-278, 1-[2-cyano-4-(trifluoromethyl)phenyl]-N-{[(2S,4R)-4-fluoro-1-methylpyrrolidin-2-yl]methyl}-4-[6-(1-methyl-1H-pyrrol-2-yl)pyridin-3-yl]piperidine-4-carboxamide], the Ki is under 10 nM.

As for `CN(C)CC1(NC(=O)C2(c3ccc(-c4cccn4C)nc3)CCN(c3ccc(C(F)(F)F)cc3C#N)CC2)COC1` [Compound 1-262, 1-[2-cyano-4-(trifluoromethyl)phenyl]-N-{3-[(dimethylamino)methyl]oxetan-3-yl}-4-[6-(1-methyl-1H-pyrrol-2-yl)pyridin-3-yl]piperidine-4-carboxamide], the Ki was under 10 nM.

Regarding `COc1ncccc1-c1ncc(C2(C(=O)N[C@@H]3CCN(C)C3)CCN(c3ccc(C(F)(F)F)cc3C#N)CC2)cc1F` [Compound 1-131, 1-[2-cyano-4-(trifluoromethyl)phenyl]-4-{3-fluoro-2′-methoxy-[2,3′-bipyridin]-5-yl}-N-[(3R)-1-methylpyrrolidin-3-yl]piperidine-4-carboxamide], the Ki is under 10 nM.

Turning to `Cc1occc1-c1ccc(C2(C(=O)N[C@H]3CCN(C)C3)CCN(c3ccc(C(F)(F)F)cc3C#N)CC2)cn1` [Compound 1-120, 1-[2-cyano-4-(trifluoromethyl)phenyl]-4-[6-(2-methylfuran-3-yl)pyridin-3-yl]-N-[(3S)-1-methylpyrrolidin-3-yl]piperidine-4-carboxamide], the Ki was under 10 nM.

As to `COc1ccccc1-c1ccc(C2(C(=O)NC[C@H]3COCCN3C)CCN(c3ccc(C(F)(F)F)cc3C#N)CC2)cn1` [Compound 1-328, 1-[2-cyano-4-(trifluoromethyl)phenyl]-4-[6-(2-methoxyphenyl)pyridin-3-yl]-N-{[(3S)-4-methylmorpholin-3-yl]methyl}piperidine-4-carboxamide], the Ki is 10 to 100 nM.

For `CCOc1ncccc1-c1ccc(C2(C(=O)N[C@H]3CCN(C)C3)CCN(c3ccc(C(F)(F)F)nc3C(N)=O)CC2)cn1` [Compound 1-27, 3-(4-{2′-ethoxy-[2,3′-bipyridin]-5-yl}-4-{[(3S)-1-methylpyrrolidin-3-yl]carbamoyl}piperidin-1-yl)-6-(trifluoromethyl)pyridine-2-carboxamide], the Ki fell in the range of 10 to 100 nM.

“(3R)-1-methylpyrrolidin-3-yl N-{1-[2-cyano-4-(trifluoromethyl)phenyl]-4-{2′-ethoxy-[2,3′-bipyridin]-5-yl}piperidin-4-yl}carbamate [Compound 2-22]”: the Ki is under 10 nM.

Regarding `CN1CC(NC(=O)C2(c3ccc(-c4cccn4C)nc3)CCN(c3ccc(C(F)(F)F)cc3C#N)CC2)C1` [Compound 1-219, 1-[2-cyano-4-(trifluoromethyl)phenyl]-4-[6-(1-methyl-1H-pyrrol-2-yl)pyridin-3-yl]-N-(1-methylazetidin-3-yl)piperidine-4-carboxamide], the Ki was under 10 nM.

On to `COc1ccccc1-c1ccc(C2(C(=O)N[C@@H]3CCN(C)C3)CCN(c3ccc(C(F)(F)F)cc3C#N)CC2)cn1` [Compound 1-52, 1-[2-cyano-4-(trifluoromethyl)phenyl]-4-[6-(2-methoxyphenyl)pyridin-3-yl]-N-[(3R)-1-methylpyrrolidin-3-yl]piperidine-4-carboxamide], for which the Ki was under 10 nM.

With `CCOc1ncccc1-c1ccc(C2(C(=O)N[C@H]3CCN(C)C3)CCN(c3ccc(C(F)F)cc3C#N)CC2)cn1` [Compound 1-37, 1-[2-cyano-4-(difluoromethyl)phenyl]-4-{2′-ethoxy-[2,3′-bipyridin]-5-yl}-N-[(3S)-1-methylpyrrolidin-3-yl]piperidine-4-carboxamide], the Ki is under 10 nM.

As to `COc1ncc(F)cc1-c1ncc(C2(C(=O)N[C@H]3CCN(C)C3)CCN(c3ccc(C(F)(F)F)cc3F)CC2)cc1F` [Compound 1-210, 4-{3,5′-difluoro-2′-methoxy-[2,3′-bipyridin]-5-yl}-1-[2-fluoro-4-(trifluoromethyl)phenyl]-N-[(3S)-1-methylpyrrolidin-3-yl]piperidine-4-carboxamide], the Ki was under 10 nM.

Take `CCOc1ncccc1-c1ccc(C2(C(=O)N[C@H]3CCN(C)C3)CCN(c3ccc(C(C)(F)F)cc3C#N)CC2)cn1` [Compound 1-59, 1-[2-cyano-4-(1,1-difluoroethyl)phenyl]-4-{2′-ethoxy-[2,3′-bipyridin]-5-yl}-N-[(3S)-1-methylpyrrolidin-3-yl]piperidine-4-carboxamide]: the Ki was under 10 nM.

On to `CCOc1ncccc1-c1ccc(C2(C(=O)N[C@@H]3CCN(C)C3)CCN(c3ccc(C(F)(F)F)c(Cl)c3)CC2)cc1` [Compound 1-165, 1-[3-chloro-4-(trifluoromethyl)phenyl]-4-[4-(2-ethoxypyridin-3-yl)phenyl]-N-[(3R)-1-methylpyrrolidin-3-yl]piperidine-4-carboxamide], for which the Ki lay in the range of 10 to 100 nM.

For the compound `CCOc1ncccc1-c1ccc(C2(NC(=O)O[C@H]3CCN(C)C3)CCN(c3ccc(C(F)(F)F)cc3C#N)CC2)cn1` [Compound 2-18, (3S)-1-methylpyrrolidin-3-yl N-{1-[2-cyano-4-(trifluoromethyl)phenyl]-4-{2′-ethoxy-[2,3′-bipyridin]-5-yl}piperidin-4-yl}carbamate], the Ki was under 10 nM.

Source of the values: patent publication US12492181B2, “Gem-disubstituted piperidine melanocortin subtype-2 receptor (MC2R) antagonists and uses thereof” (Crinetics Pharmaceuticals, Inc., priority 2019, dated 2025).
